Results as given in patent publication EP0961591B1, “METHOD TO ENHANCE TISSUE AC[…] RADIOLABELED COMPOUNDS” (BOARD OF SUPERVISORS OF LOUISIANA STATE UNIVERSITY AND …, priority 1997, dated 1999).
Like-named read-outs stand apart in the source and are kept apart here.

Key:
SK-R2 = assay: Peptide binding and internalization assay; design: species or system human
Method: (§1) Cell lines were obtained from the ATCC (IMR-32 and SKNSH) or from Ohio State University (Columbus, Ohio) (SK-R2). All cells lines were maintained in 5% CO2 at 37°C in media defined by the suppliers of the cell lines.
(§2) Cells were harvested, counted with a hemocytometer, and resuspended in binding buffer (Minimum Essential Medium (MEM), 10 mM Hepes, 0.01% BSA). A standard assay used 500,000 cells in 1 ml of binding buffer. Radioactive ligand alone (500,000 cpm), or in combination with at least 1,000-fold molar excess (10^-6 M) non-radioactive compound (to calculate specific binding), was added to a final volume of 1 ml. At the termination of the experiment, the incubation medium was removed, the cells were rinsed twice with Hanks balanced salt solution (HBSS), and the radioactivity in the cells determined using a gamma counter. This level of radioactivity represents total binding, which includes both membrane-bound and internalized fractions. Specific binding was determined by calculating the difference in the levels of measured radioactivity without the unlabeled competitor minus the radioactivity with the unlabeled competitor.
(§3) To differentiate between membrane and intracellular binding, cells were subsequently incubated for 10 min at 4°C with acidified HBSS (pH=4-5), rinsed in HBSS, and the radioactivity again determined using the gamma counter. Since the acid wash preferentially released the radioactive ligand from the external surface of the cell, remaining radioactivity was attributed to internalized fractions. Membrane-associated binding was then calculated as the difference between the total binding and internalized fractions.
(§4) The assay methods were as described in Example 2.

[1] = system: tumor in the left side of the neck
Method: During and after each administration of the last eight doses, a tumor in the left side of the neck was monitored for radioligand uptake with an ion chamber survey meter, a Victoreen 450P ion chamber, which measures external gamma dose rates. Administration of the initial seven doses were by bolus injection. The last three doses were delivered by infusion with various activities of radioligand.
The external gamma dose rates from radioligand accumulation in the neck tumor area were measured immediately and 24 hr after injection.
Four months after the final bolus dose, the first dose by infusion ("Infusion 1") was administered. A dose equivalent to the previous bolus dose (175.9 mCi) was given, but the radioligand was administered by infusion over 72 hr at a constant rate of 2.5 mCi/hr.
One month later, in "Infusion 2," the total dose was increased to 389.2 mCi. By infusion, 189.8 mCi of the radioligand was given over the first 24 hr, 108.6 mCi over the second 24 hr, and 90.8 mCi over the third 24 hr. For each 24 hr period, the infusion rate was kept constant.
One month later, a third dose was administered by infusion ("Infusion 3"). A dose of 301 mCi was infused the first 24 hr period. In two subsequent 24 hr periods, 25 and 21 mCi were infused.

IMR-32 = assay: Peptide binding and internalization assay; design: species or system human
Method: as §1, §2, §3
The times for ligand binding and internalization were analyzed using the standard assay methods described above. […] The first series of experiments used IMR-32 cells that were exposed to a radioligand for varying periods of time (up to 72 hr). The incubation media was replaced at least every 48 hr.
as §4

SKNSH = assay: Peptide binding and internalization assay; design: species or system human
Excerpt: The cells included: (1) IMR-32 (ATCC No. CCL-127), a human neuroblastoma cell line with a very high expression level of somatostatin receptors (SST), predominantly SST-2; (2) SKNSH (ATCC No. HTB-11), a human neuroblastoma bone marrow metastatic cell that lacks somatostatin receptors as defined by either a binding assay or reverse transcriptase-polymerase chain reaction (RTPCR); and (3) SK-R2, a SKNSH-derived cell line transfected with the gene for the SST-2 receptor. The IMR-32 and the SK-R2 cells express somatostatin receptors type 2 (SST-2). […] Cell lines were obtained from the ATCC (IMR-32 and SKNSH) or from Ohio State University (Columbus, Ohio) (SK-R2). All cells lines were maintained in 5% CO2 at 37°C in media defined by the suppliers of the cell lines.
as §2, §3, §4

[2] = system: human angiogenic vascular tissue; assay: Human Placental Vein Angiogenesis Model; type: cell-based; conditions: 50 µCi/mL (or equivalent amounts), 14 days
Excerpt: Watson et al., "Up-Regulation of Somatostatin Receptor Subtype 2 (SST-2) mRNA Occurs During the Transformation of Human Endothelium to the Angiogenic Phenotype," Paper Presented at the 12th International Symposium on Regulatory Peptides, Copenhagen, Denmark, September 1996; J.C. Watson et al., "SST-2 Gene Expression Appears During Human Angiogenesis," Regulatory Peptides, vol. 64, p. 206 (Abstract) (1996); and J.C. Watson et al., "Breast Cancer Increases Initiation of Angiogenesis Without Accelerating Neovessel Growth Rate," Surgery, vol. 122, pp. 508-14 (1997). Human placental veins were cut into discs of 2 mm diameter and were incorporated into a 0.3% fibrinogen gel. This gel was then overlaid with tissue culture media containing 10-20 % fetal calf serum (FCS). Under normal conditions, endothelial cords will begin to sprout from the transected cut edge of the vein discs within six days.
These vein discs were placed into wells of three separate culture plates. One culture plate, the control sample, was allowed to grow without treatment. […] The discs were then incubated for fourteen days. […]
Using a digital image analyzer, the mean area of the sprouting tissue surrounding the discs was measured.
To measure the growth rate of angiogenic vascular tissue, every two days during the 14-day incubation period, the length of sprouts were measured. […]

[3] = SKR-2, competitor octreotide acetate
[4] = IMR-32, competitor octreotide acetate
[5] = IMR-32 cells exposed to radioligand up to 72 hr

(^111In-DTPA-D-Phe^1)-octreotide [^111In-pentetreotide]
binding associated with the plasma membrane (SK-R2; SK-R2 cell line): 95%
Total Binding (CPM ± SD), MEMBRANE (SK-R2; SKR-2, 1 CPM/cell): 33,655 ± 2,728 CPM
Total Binding (CPM ± SD), TOTAL (SK-R2; SKR-2, 1 CPM/cell): 36,261 ± 2,085 CPM
Total Binding (CPM ± SD), INTRACELLULAR (SK-R2; SKR-2, 1 CPM/cell, after acid wash): 2,607 ± 672 CPM
Kd (SK-R2; SKR-2, Scatchard plot analysis, read-out: Kd (apparent dissociation constant)): 1 nM
Specific Binding (CPM), INTRACELLULAR (SK-R2; [3]): 1,792 CPM
Specific Binding (CPM), MEMBRANE (SK-R2; [3]): 33,683 CPM
Specific Binding (CPM), TOTAL (SK-R2; [3]): 35,475 CPM
infusion ratio relative to the bolus ratio ([1]; Infusion 1): 3 fold
infusion ratio relative to the bolus ratio ([1]; Infusion 2): 4 fold
infusion ratio relative to the bolus ratio ([1]; Infusion 3): 5 fold
highest ratio relative to the highest ratio from the bolus injection ([1]; Infusion Dose 1, after the first 24 hr infusion): almost five times higher
tumor foci identifiable by gamma scintigraphy ([1]; Infusion Dose 3, gamma camera scintigraphy): still identifiable by gamma scintigraphy thirteen days after completion of the last infusion dose
Total Binding (CPM ± SD), MEMBRANE (IMR-32; IMR-32, 1 CPM/cell): 2,373 ± 417 CPM
Total Binding (CPM ± SD), TOTAL (IMR-32; IMR-32, 1 CPM/cell): 4,780 ± 928 CPM
Total Binding (CPM ± SD), INTRACELLULAR (IMR-32; IMR-32, 1 CPM/cell, after acid wash): 2,408 ± 51 CPM
Kd (IMR-32; IMR-32, Scatchard plot analysis, read-out: Kd (apparent dissociation constant)): 4 nM
Specific Binding (CPM), INTRACELLULAR (IMR-32; [4]): 1.536 CPM
Specific Binding (CPM), MEMBRANE (IMR-32; [4]): 2,372 CPM
Specific Binding (CPM), TOTAL (IMR-32; [4]): 3,908 CPM
fractions of total radioactivity incorporated into the cell (IMR-32; [5]): 40-75%
time of maximal binding (IMR-32; [5]): 48 to 72 h
Total Binding (CPM ± SD), MEMBRANE (SKNSH; 1 CPM/cell): 87 ± 114 CPM
Total Binding (CPM ± SD), TOTAL (SKNSH; 1 CPM/cell): 861 ± 30 CPM
Total Binding (CPM ± SD), INTRACELLULAR (SKNSH; 1 CPM/cell, after acid wash): 775 ± 107 CPM
Specific Binding (CPM), INTRACELLULAR (SKNSH; competitor octreotide acetate): 0 CPM
Specific Binding (CPM), MEMBRANE (SKNSH; competitor octreotide acetate): 0 CPM
% initiation of angiogenic growth [2]: lowest % initiation
vessel area ([2]; digital image analyzer): the least area of new growth
